These results are taken from patent US20240067651A1 (Biohaven Therapeutics Ltd., priority 2019, published 2024).

Each structure is given as a SMILES string.

One series can be described thus: Plasma Stability. Type of series: in vitro ADME, human. The procedure:
Plasma stability estimates the ability of a compound to remain intact in the blood. For prodrugs that are intended to be hydrolyzed by plasma enzymes a certain level of instability in plasma indicates the compound is probably breaking down to the parent drug. A stability range of 25-75% remaining parent compound after 1 hour in plasma indicates the compound is likely breaking down to the parent drug molecule and a patient will be exposed to this parent molecule.
Assessment of plasma stability was carried out by individual incubations of drug candidates in fresh human plasma at a concentration of 1 μM for 1 hour at 37° C. After which, the samples were de-proteinized by addition of 2 volumes of acetonitrile containing 0.1% formic acid and internal standard, vortex mixed for 2 minutes and centrifuged at 4,000 rpm for 10 minutes to pellet precipitated protein. The resulting supernatant containing the drug candidates was diluted 5-fold with water containing 0.1% formic acid and submitted to LCMS/MS analysis. All determinations were done in triplicate. Plasma stability was expressed as percent of control remaining.
See Pelletier et al. ACS Med. Chem. Lett. 2018, 9, 752-756.

Series [1] is described as follows: Stability in Simulated Gastric Fluid (SGF). Type of series: in vitro ADME. Set-up: key: % parent compound remaining relative to 0-minute sample. The procedure: (§1) Simulated gastric fluid (SGF) and Simulated intestinal fluid (SIF) stability are in vitro metrics indicating the ability of a compound to pass through the gastrointestinal tract […] or completely digested. An undigested or nearly undigested compound will usually survive gut transit long enough to be absorbed into the systemic circulation. Greater than 50% remaining intact compound at 1 hour indicates a relatively stable molecule that will likely be absorbed in the gut.
(§2) For each test compound, samples at a final concentration of 2 μg/mL are prepared in respective blank simulated gastric fluid with pepsin (pH 1.2) and simulated intestinal fluid with pancreatin (pH 6.8). All samples are incubated at 37° C. on a 150-rpm orbital shaker, and an aliquot is removed at predetermined time points (0 to 60 minutes). Samples are precipitated with three volumes of acetonitrile containing propranolol as internal standard, and centrifuged for 10 min at 2,000 g before LC-MS/MS analysis of the supernatant solutions. Percent parent compound remaining is determined relative to 0-minute incubation samples. If a sufficient number of time points are available, the degradation half-life is calculated based on the natural log of % compound remaining vs. time plot.

Series [2] in a line: Stability in Simulated Intestinal Fluid (SIF). Type of series: in vitro ADME. Set-up: key: % parent compound remaining relative to 0-minute sample. The procedure:
as §1, §2

Where [3] appears, read: % remaining at 1 h, human plasma, 1 μM, 37° C.
[4] abbreviates: % remaining at 1 h, SGF with pepsin pH 1.2, 2 μg/mL, 37° C.
Where [5] appears, read: % remaining at 1 h, SIF with pancreatin pH 6.8, 2 μg/mL, 37° C.
The mark [6] stands for this setting: % remaining at 1 h in simulated gastric fluid, the 15th table.
The mark [7] stands for this setting: % remaining at 1 h in simulated intestinal fluid, the 15th table.
[8] abbreviates: % remaining at 1 h in human plasma, the 15th table.
Setting [9] is: bare number, unit or time not given, the 15th table Examples 204-207.

Consider `CC(C)OCCn1c(=S)[nH]c(=O)c2c1ccn2C[C@]1(C(=O)O)CCCN1C(=O)OC(C)(C)C.O=C(O)C(F)(F)F` [Example 2, trifluoroacetic acid 1-tert-butyl 2-{4-oxo-1-[2-(propan-2-yloxy)ethyl]-2-sulfanylidene-1H,2H,3H,4H,5H-pyrrolo [3,2-d]pyrimidin-5-yl}methyl(2S)-pyrrolidine-1,2-dicarboxylate], for which the “human Plasma stability” value in “Plasma Stability” (setting [3]) is on record as 73%.

As to `COc1ccc(CSc2nc(=O)c3[nH]ccc3n2CCOC(C)C)cc1` [Example 74, 2-{[(4-Methoxyphenyl)methyl]sulfanyl}-1-[2-(propan-2-yloxy)ethyl]-1H,4H,5H-pyrrolo[3,2-d]pyrimidin-4-one], the SGF in series [1] (setting [4]) is 37%. Also, in series [2] (setting [5]), the SIF is recorded as 97%. In addition, the “human Plasma stability” value in “Plasma Stability” (setting [3]) is recorded as 97%.

Take `Cc1ccc(S(=O)(=O)n2ccc3c2c(=O)[nH]c(=S)n3CCOC(C)C)cc1C` [Example 75, 5-(3,4-Dimethylbenzenesulfonyl)-1-[2-(propan-2-yloxy)ethyl]-2-sulfanyl-1H,4H,5H-pyrrolo[3,2-d]pyrimidin-4-one]: the SGF in series [1] (setting [4]) is recorded as 99%. In addition, the SIF in series [2] (setting [5]) is 91%. Moreover, in the series “Plasma Stability” (setting [3]), the “human Plasma stability” value is listed as 100%.

As for `CC(C)OCCn1c(=S)[nH]c(=O)c2c1ccn2S(C)(=O)=O` [Example 76, 5-methanesulfonyl-1-[2-(propan-2-yloxy)ethyl]-2-sulfanylidene-1H,2H,3H,4H,5H-pyrrolo[3,2-d]pyrimidin-4-one], the SGF in series [1] (setting [4]) is on record as 96%. Also, the SIF in series [2] (setting [5]) is 91%. Also, the “human Plasma stability” value in the series “Plasma Stability” (setting [3]) was determined as 98%.

Consider `CCS(=O)(=O)n1ccc2c1c(=O)[nH]c(=S)n2CCOC(C)C` [Example 77, 5-(ethanesulfonyl)-1-[2-(propan-2-yloxy)ethyl]-2-sulfanylidene-1H,2H,3H,4H,5H-pyrrolo[3,2-d]pyrimidin-4-one], for which, in series [1] (setting [4]), the SGF is 99%. Also, the SIF in series [2] (setting [5]) was 96%. In addition, in the series “Plasma Stability” (setting [3]), the “human Plasma stability” value is recorded as 98%.

For `CC(C)OCCn1c(=S)[nH]c(=O)c2c1ccn2S(=O)(=O)c1ccccc1` [Example 78, 5-(benzenesulfonyl)-1-[2-(propan-2-yloxy)ethyl]-2-sulfanylidene-1H,2H,3H,4H,5H-pyrrolo[3,2-d]pyrimidin-4-one], the SGF in series [1] (setting [4]) is given as 100%. The SIF in series [2] (setting [5]) is on record as 80%. In addition, the “human Plasma stability” value in “Plasma Stability” (setting [3]) is listed as 96%.

Consider `CC(C)OCCn1c(=S)[nH]c(=O)c2c1ccn2S(=O)(=O)c1ccccc1F` [Example 79, 5-(2-fluorobenzenesulfonyl)-1-[2-(propan-2-yloxy)ethyl]-2-sulfanylidene-1H,2H,3H,4H,5H-pyrrolo[3,2-d]pyrimidin-4-one], for which, in series [1] (setting [4]), the SGF is reported as 92%. The SIF in series [2] (setting [5]) is recorded as 82%. Moreover, the “human Plasma stability” value in “Plasma Stability” (setting [3]) is recorded as 98%.

With `Cc1ccccc1S(=O)(=O)n1ccc2c1c(=O)[nH]c(=S)n2CCOC(C)C` [Example 80, 5-(2-methylbenzenesulfonyl)-1-[2-(propan-2-yloxy)ethyl]-2-sulfanylidene-1H,2H,3H,4H,5H-pyrrolo[3,2-d]pyrimidin-4-one], in series [1] (setting [4]), the SGF is given as 90%. Moreover, the SIF in series [2] (setting [5]) is 87%. Besides, the “human Plasma stability” value in the series “Plasma Stability” (setting [3]) is reported as 99%.

Regarding `CC(C)OCCn1c(=S)n2c(=O)c3c1ccn3COC(=O)CCCCCCC(=O)OC2` [Example 134, 16-[2-(Propan-2-yloxy)ethyl]-15-sulfanylidene-3,12-dioxa-1,14,16-triazatricyclo[12.5.2.0^{17,20}]henicosa-17(20),18-diene-4,11,21-trione], the SGF in series [1] (setting [4]) is listed as 99%. For the same compound, the SIF in series [2] (setting [5]) was 1%. Besides, the “human Plasma stability” value in the series “Plasma Stability” (setting [3]) worked out at 1%.

For `CC(C)OCCn1c2nc(=O)c3c1ccn3COC(=O)CCCCCCC(=O)OCS2` [Example 135, 22-[2-(Propan-2-yloxy)ethyl]-6,15-dioxa-17-thia-4,19,22-triazatricyclo[16.3.1.0^{4,21}]docosa-1(21),2,18-triene-7,14,20-trione], the SGF in series [1] (setting [4]) is 86%. In addition, the SIF in series [2] (setting [5]) is listed as 67%. Besides, the “human Plasma stability” value in “Plasma Stability” (setting [3]) was found to be 67%.

`CC(C)OCCn1c(=S)[nH]c(=O)c2c1ccn2COC(=O)CCCCCCC(=O)OCn1ccc2c1c(=O)[nH]c(=S)n2CCOC(C)C` [Example 136, 1,8-Bis({4-oxo-1-[2-(propan-2-yloxy)ethyl]-2-sulfanylidene-1H,2H,3H,4H,5H-pyrrolo[3,2-d]pyrimidin-5-yl}methyl) octanedioate]: in series [1] (setting [4]), the SGF is listed as 77%. Also, the SIF in series [2] (setting [5]) is 2%. Further, the “human Plasma stability” value in “Plasma Stability” (setting [3]) was determined as 2%.

Regarding `CC(C)OCCn1c(=S)[nH]c(=O)c2c1ccn2COC(=O)CCCCCCC(=O)OCCl` [Example 137, 1-Chloromethyl 8-{4-oxo-1-[2-(propan-2-yloxy)ethyl]-2-sulfanylidene-1H,2H,3H,4H,5H-pyrrolo[3,2-d]pyrimidin-5-yl}methyl octanedioate], in series [1] (setting [4]), the SGF is listed as 74%. Also, in series [2] (setting [5]), the SIF is given as 56%. Besides, the “human Plasma stability” value in “Plasma Stability” (setting [3]) amounted to 1%.

With `CC(C)OCCn1c2nc(=O)c3c1ccn3COC(=O)CCC(=O)N1CCC(CC1)C(=O)OCS2` [Example 138, 25-[2-(propan-2-yloxy)ethyl]-3,15-dioxa-5-thia-7,13,20,25-tetraazatetra-cyclo[18.2.2.1^{6,10}.0^{9,13}]penta-cosa-6,9,11-triene-2,8,16,19-tetrone], in series [1] (setting [4]), the SGF is listed as 100% remaining. In series [2] (setting [5]), the SIF is listed as 98% remaining. In addition, the “human Plasma stability” value in the series “Plasma Stability” (setting [3]) worked out at 66% remaining.

As to `CC(C)OCCn1c(=S)n(COC(=O)C2CCNCC2)c(=O)c2c1ccn2COC(=O)CCC(=O)O.O=C(O)C(F)(F)F` [Example 139, 4-oxo-4-({4-oxo-3-[(piperidine-4-carbonyloxy)methyl]-1-[2-(propan-2-yloxy)ethyl]-2-sulfanylidene-1H,2H,3H,4H,5H-pyrrolo[3,2-d]pyrimidin-5-yl}methoxy)butanoic acid; trifluoroacetic acid], the SGF in series [1] (setting [4]) was 99% remaining. In series [2] (setting [5]), the SIF is reported as 98% remaining. In addition, in “Plasma Stability” (setting [3]), the “human Plasma stability” value came out at 8% remaining.

With `CC(C)OCCn1c(=S)n2c(=O)c3c1ccn3COC(=O)CCC(=O)N1CCC(CC1)C(=O)OC2` [Example 140, 19-[2-(propan-2-yloxy)ethyl]-20-sulfanylidene-3,13-dioxa-1,8,15,19-tetraazatetra-cyclo[13.5.2.2^{5,8}.0^{18,22}]tetra-cosa-16,18(22)-diene-4,9,12,21-tetrone], the SGF in series [1] (setting [4]) was 99% remaining. In addition, the SIF in series [2] (setting [5]) is 79% remaining. In addition, the “human Plasma stability” value in the series “Plasma Stability” (setting [3]) was 10% remaining.

`CCCNC(=O)OCSc1nc(=O)c2[nH]ccc2n1CCOC(C)C` [Example 182]: the SGF in series [1] (setting [6]) is 81% @ 1 h. The SIF in series [2] (setting [7]) is 69% @ 1 h. The “human Plasma stability” value in the series “Plasma Stability” (setting [8]) is 94% @ 1 h.

In the case of `CCCNC(=O)OCSc1nc(=O)c2c(ccn2C(=O)NCCC)n1CCOC(C)C` [Example 184], in series [1] (setting [6]), the SGF is reported as 99% @ 1 h. Besides, the SIF in series [2] (setting [7]) is 86% @ 1 h. Moreover, the “human Plasma stability” value in the series “Plasma Stability” (setting [8]) came to 95% @ 1 h.

With `CCOC(=O)OCSc1nc(=O)c2[nH]ccc2n1CCOC(C)C` [Example 201], in series [1] (setting [6]), the SGF is on record as 100% remaining. Moreover, in series [2] (setting [7]), the SIF is given as 43% remaining. Further, the “human Plasma stability” value in the series “Plasma Stability” (setting [8]) came to 0% remaining.

As for `CCOC(=O)OCSc1nc(=O)c2c(ccn2CSc2nc(=O)c3[nH]ccc3n2CCOC(C)C)n1CCOC(C)C` [Example 202], the SGF in series [1] (setting [6]) was 45% remaining. Further, the SIF in series [2] (setting [7]) was 52% remaining. Further, the “human Plasma stability” value in the series “Plasma Stability” (setting [8]) was 3% remaining.

Turning to `CC(C)OCCn1c(SCOC(=O)Oc2ccccc2)nc(=O)c2[nH]ccc21` [Example 205], the SGF in series [1] (setting [9]) is 61. For the same compound, the SIF in series [2] (setting [9]) is on record as 10. Also, the “human Plasma stability” value in the series “Plasma Stability” (setting [8]) is 2% remaining.

Turning to `CCCCCCCOC(=O)OCSc1nc(=O)c2c(ccn2COC(=O)OCCCCCCC)n1CCOC(C)C` [Example 220], the SGF in series [1] (% remaining at 1 h in simulated gastric fluid, the 17th table) is 77% remaining. Further, the SIF in series [2] (% remaining at 1 h in simulated intestinal fluid, the 17th table) is reported as 5% remaining. In addition, the “human Plasma stability” value in “Plasma Stability” (% remaining at 1 h in human plasma, the 17th table) is listed as 55% remaining.

On to `CC(C)OCCn1c(=S)[nH]c(=O)c2c1ccn2COC(=O)N(C)c1ccccc1Cl` [Example 250], for which, in series [1] (simulated gastric fluid, at 1 h), the SGF is reported as 99% remaining. The SIF in series [2] (simulated intestinal fluid, at 1 h) is listed as 93% remaining. Further, the “human Plasma stability” value in “Plasma Stability” (human plasma, at 1 h) came out at 100% remaining.
